Test results as given in ChEMBL document CHEMBL5724914, “Linking interpersonal differences in gut microbiota composition and drug biotransformation activity” (2024).

What was measured:
[1] = (§1) The drug is tested on Z-030 corresponding to mouse gut metagenome with ENA study accession number: PRJEB37062 and ENA sample accession number: ERS12561829 for biotransformation under anaerobic condition. The drug concentrations were measured over 9 timepoints collected between 0 and 24 hours of incubation by liquid-chromatography-coupled mass spectrometry (LC–MS); conditions: 2 µM
[2] = as §1, with “Z-023” for “Z-030”, “to” for “to mouse gut”, “ERS12561822” for “ERS12561829”; conditions: 2 µM
[3] = as §1, with “Z-021” for “Z-030”, “to” for “to mouse gut”, “ERS12561820” for “ERS12561829”; conditions: 2 µM
[4] = as §1, with “Z-016” for “Z-030”, “ERS12561815” for “ERS12561829”; conditions: 2 µM
[5] = as §1, with “Z-007” for “Z-030”, “rat” for “mouse”, “ERS12561807” for “ERS12561829”; conditions: 2 µM
[6] = as §1, with “Z-001” for “Z-030”, “ERS12561801” for “ERS12561829”; conditions: 2 µM
[7] = as §1, with “WLS-077” for “Z-030”, “human” for “mouse”, “ERS12561750” for “ERS12561829”; conditions: 2 µM
[8] = as §1, with “WLS-069” for “Z-030”, “human” for “mouse”, “ERS12561748” for “ERS12561829”; conditions: 2 µM
[9] = as §1, with “WLS-007” for “Z-030”, “human” for “mouse”, “ERS12561742” for “ERS12561829”; conditions: 2 µM
[10] = human gut metagenome, 24 h, 2 µM
[11] = human gut metagenome, 24 h, 2 µM; remark: listed apart in the source
[12] = human gut metagenome, 24 h, 2 µM; remark: listed apart in the source
[13] = human gut metagenome, 24 h, 2 µM; remark: listed apart in the source
[14] = human gut metagenome, 24 h, 2 µM; remark: listed apart in the source
[15] = human gut metagenome, 24 h, 2 µM; remark: listed apart in the source
[16] = human gut metagenome, 24 h, 2 µM; remark: listed apart in the source
[17] = human gut metagenome, 24 h, 2 µM; remark: listed apart in the source
[18] = human gut metagenome, 24 h, 2 µM; remark: listed apart in the source
[19] = human gut metagenome, 24 h, 2 µM; remark: listed apart in the source
[20] = human gut metagenome, 24 h, 2 µM; remark: listed apart in the source
Note: call rule not given here.

Row | Bacterial Biotransformation [1] | Bacterial Biotransformation [2] | Bacterial Biotransformation [3] | Bacterial Biotransformation [4] | Bacterial Biotransformation [5] | Bacterial Biotransformation [6] | Bacterial Biotransformation [7] | Bacterial Biotransformation [8] | Bacterial Biotransformation [9] | Bacterial Biotransformation [10] | Bacterial Biotransformation [11] | Bacterial Biotransformation [12] | Bacterial Biotransformation [13] | Bacterial Biotransformation [14] | Bacterial Biotransformation [15] | Bacterial Biotransformation [16] | Bacterial Biotransformation [17] | Bacterial Biotransformation [18] | Bacterial Biotransformation [19] | Bacterial Biotransformation [20] | Structure (SMILES)
1 | Compound NOT metabolized | Compound metabolized | Compound NOT metabolized | Compound metabolized | Compound NOT metabolized | Compound NOT metabolized | Compound metabolized | Compound metabolized | Compound NOT metabolized | Compound metabolized | Compound metabolized | Compound metabolized | Compound metabolized | Compound metabolized | Compound metabolized | Compound NOT metabolized | Compound metabolized | Compound metabolized | Compound metabolized | Compound metabolized | CC(C)(C)NC(=O)[C@H]1CC[C@H]2[C@@H]3CC[C@H]4NC(=O)C=C[C@]4(C)[C@H]3CC[C@]12C [FINASTERIDE]
2 | Compound NOT metabolized | Compound NOT metabolized | Compound NOT metabolized | Compound NOT metabolized | Compound NOT metabolized | Compound NOT metabolized | Compound NOT metabolized | Compound NOT metabolized | Compound NOT metabolized | Compound NOT metabolized | Compound NOT metabolized | Compound NOT metabolized | Compound NOT metabolized | Compound NOT metabolized | Compound NOT metabolized | Compound NOT metabolized | Compound NOT metabolized | Compound NOT metabolized | Compound NOT metabolized | Compound NOT metabolized | CC1Cc2ccccc2N1NC(=O)c1ccc(Cl)c(S(N)(=O)=O)c1 (stereo not given) [INDAPAMIDE]
3 | Compound NOT metabolized | Compound NOT metabolized | Compound NOT metabolized | Compound NOT metabolized | Compound NOT metabolized | Compound NOT metabolized | Compound metabolized | Compound metabolized | Compound metabolized | Compound metabolized | Compound metabolized | Compound metabolized | Compound metabolized | Compound metabolized | Compound metabolized | Compound metabolized | Compound metabolized | Compound metabolized | Compound NOT metabolized | Compound metabolized | COc1ccc2c(c1)c(CC(=O)O)c(C)n2C(=O)c1ccc(Cl)cc1 [INDOMETHACIN]
4 | Compound NOT metabolized | Compound metabolized | Compound NOT metabolized | Compound NOT metabolized | Compound NOT metabolized | Compound NOT metabolized | Compound NOT metabolized | Compound NOT metabolized | Compound NOT metabolized | Compound NOT metabolized | Compound NOT metabolized | Compound NOT metabolized | Compound metabolized | Compound NOT metabolized | Compound metabolized | Compound NOT metabolized | Compound NOT metabolized | Compound NOT metabolized | Compound NOT metabolized | Compound NOT metabolized | CC(CCc1ccccc1)NCC(O)c1ccc(O)c(C(N)=O)c1 (stereo not given) [LABETALOL]
5 | Compound NOT metabolized | Compound NOT metabolized | Compound NOT metabolized | Compound NOT metabolized | Compound NOT metabolized | Compound NOT metabolized | Compound NOT metabolized | Compound NOT metabolized | Compound NOT metabolized | Compound NOT metabolized | Compound NOT metabolized | Compound NOT metabolized | Compound NOT metabolized | Compound NOT metabolized | Compound NOT metabolized | Compound NOT metabolized | Compound metabolized | Compound NOT metabolized | Compound NOT metabolized | Compound metabolized | Nc1nnc(-c2cccc(Cl)c2Cl)c(N)n1 [LAMOTRIGINE]
6 | Compound NOT metabolized | Compound metabolized | Compound metabolized | Compound NOT metabolized | Compound NOT metabolized | Compound NOT metabolized | Compound metabolized | Compound metabolized | Compound NOT metabolized | Compound NOT metabolized | Compound metabolized | Compound NOT metabolized | Compound NOT metabolized | Compound metabolized | Compound metabolized | Compound NOT metabolized | Compound metabolized | Compound metabolized | Compound NOT metabolized | Compound metabolized | OC(c1cc(C(F)(F)F)nc2c(C(F)(F)F)cccc12)C1CCCCN1 (stereo not given) [MEFLOQUINE]
7 | Compound NOT metabolized | Compound NOT metabolized | Compound NOT metabolized | Compound metabolized | Compound metabolized | Compound metabolized | Compound metabolized | Compound metabolized | Compound metabolized | Compound metabolized | Compound metabolized | Compound metabolized | Compound metabolized | Compound metabolized | Compound metabolized | Compound metabolized | Compound metabolized | Compound metabolized | Compound metabolized | Compound metabolized | CC(=O)O[C@]1(C(C)=O)CC[C@H]2[C@@H]3C=C(C)C4=CC(=O)CC[C@]4(C)[C@H]3CC[C@@]21C [MEGESTROL ACETATE]
